Measured values published in patent US8653075B2, “Therapeutic methods employing substituted piperidines which are CCR3 antagonists” (Boehringer Ingelheim International GmbH, priority 2009, dated 2014).

Molecular target: T1, human chemokine receptor CCR3 (Homo sapiens, UniProt P51677)
T1 construct: expressed in transfected cells; host or cells: K562 cell line (hCCR3-C1 cells), membrane preparation
T1 sequence (P51677 1-355): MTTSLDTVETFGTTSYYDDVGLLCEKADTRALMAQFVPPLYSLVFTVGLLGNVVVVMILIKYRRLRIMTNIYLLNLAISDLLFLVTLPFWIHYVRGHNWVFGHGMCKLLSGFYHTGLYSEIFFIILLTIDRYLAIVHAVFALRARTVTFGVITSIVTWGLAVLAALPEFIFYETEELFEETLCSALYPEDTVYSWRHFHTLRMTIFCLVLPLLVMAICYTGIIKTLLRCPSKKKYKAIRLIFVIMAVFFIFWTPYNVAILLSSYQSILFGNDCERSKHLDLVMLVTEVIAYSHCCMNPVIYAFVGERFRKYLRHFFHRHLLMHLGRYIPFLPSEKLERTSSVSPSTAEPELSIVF
Assay: CCR3 receptor binding assay (SPA, 125I-eotaxin-1 displacement, hCCR3-C1 K562 cell membranes)
Conditions: human Eotaxin-1 at human CCR3-Rezeptor; for inhibition at 1 µM: 1 μM test compound, read-out: CCR3 % inh @ 1 μM; for Ki: dose range 0.1 to 10000 nM
How it was run: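 SPA displacement of recombinant human 125I-eotaxin-1 (30.000 dpm per well) from membranes of CCR3-transfected K562 cells (0.5-10 μg protein/well) on WGA beads. Buffer was 25 mM HEPES, 25 mM MgCl2, 1 mM CaCl2, 0.1% BSA; incubation 2 h at room temperature. Specific binding was total minus NSB (unlabelled eotaxin-1), giving % inhibition and Ki.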

Compound	inhibition at 1 µM	Ki
Cc1cc(CN2CCC(N3C(=O)CC[C@@H]3C(=O)Nc3cc(C(=O)N(C)C)ccn3)CC2)ccc1Cl [Example 147]	99%	8 nM
Cc1cc(CN2CCC(N3C(=O)CC[C@@H]3C(=O)Nc3cccc(C(=O)NC4CC4)c3)CC2)ccc1Cl [Example 148]	99%	10 nM
Cc1cc(CN2CCC(N3C(=O)CC[C@@H]3C(=O)Nc3cccc(C(=O)N(C)Cc4ccco4)c3)CC2)ccc1Cl [Example 149]	99%	10 nM
CNC(=O)c1cc(C)nc(NC(=O)[C@H]2CCC(=O)N2C2CCN(Cc3ccc(Cl)c(C)c3)CC2)c1 [Example 150]	97%	10 nM
CNC(=O)c1cccc(NC(=O)[C@H]2CCC(=O)N2C2CCN(Cc3ccc(Cl)c(C)c3)CC2)c1 [Example 151]	95%	18 nM
Cc1cc(CN2CCC(N3C(=O)CC[C@@H]3C(=O)Nc3cccc(C(=O)N4CCC4)c3)CC2)ccc1Cl [Example 152]	100%	12 nM
Cc1cc(CN2CCC(N3C(=O)CC[C@@H]3C(=O)Nc3cccc(C(=O)N4CCCCC4CO)c3)CC2)ccc1Cl (stereo partly drawn) [Example 153]	99%	12 nM
Cc1nnc(NC(=O)c2cccc(NC(=O)[C@H]3CCC(=O)N3C3CCN(Cc4ccc(Cl)c(C)c4)CC3)c2)s1 [Example 154]	98%	14 nM
CCn1cc(NC(=O)[C@H]2CCC(=O)N2C2CCN(Cc3ccc(Cl)c(C)c3)CC2)cc1C(=O)NC [Example 155]	98%	15 nM
CCN(CCO)C(=O)c1cccc(NC(=O)[C@H]2CCC(=O)N2C2CCN(Cc3ccc(Cl)c(C)c3)CC2)c1 [Example 156]	98%	15 nM
CCN(CC)C(=O)c1cccc(NC(=O)[C@H]2CCC(=O)N2C2CCN(Cc3ccc(Cl)c(C)c3)CC2)c1 [Example 157]	99%	15 nM
Cc1cc(CN2CCC(N3C(=O)CC[C@@H]3C(=O)Nc3cccc(C(=O)NC(C)(C)C)c3)CC2)ccc1Cl [Example 158]	100%	16 nM
Cc1cc(CN2CCC(N3C(=O)CC[C@@H]3C(=O)Nc3cccc(C(=O)N(C)CCO)c3)CC2)ccc1Cl [Example 159]	96%	19 nM
Cc1cc(CN2CCC(N3C(=O)CC[C@@H]3C(=O)Nc3cc(C(=O)N4CCOCC4)ccn3)CC2)ccc1Cl [Example 160]	97%	19 nM
Cc1cc(CN2CCC(N3C(=O)CC[C@@H]3C(=O)Nc3cccc(C(=O)NCC4CCCCO4)c3)CC2)ccc1Cl (stereo partly drawn) [Example 161]	97%	20 nM
Cc1cc(CN2CCC(N3C(=O)CC[C@@H]3C(=O)Nc3cccc(C(=O)NC[C@@H]4CCCO4)c3)CC2)ccc1Cl [Example 162]	97%	20 nM
Cc1cc(CN2CCC(N3C(=O)CC[C@@H]3C(=O)Nc3cccc(C(=O)NCC(C)(C)C)c3)CC2)ccc1Cl [Example 163]	99%	23 nM
CCn1cc(NC(=O)[C@H]2CCC(=O)N2C2CCN(Cc3ccc(Cl)c(C)c3)CC2)cc1C(=O)N1CCCC1 [Example 164]	96%	24 nM
CCNC(=O)c1cc(NC(=O)[C@H]2CCC(=O)N2C2CCN(Cc3ccc(Cl)c(C)c3)CC2)ccc1C [Example 165]	90%	62 nM
CNC(=O)c1cccc(N(C)C(=O)[C@H]2CCC(=O)N2C2CCN(Cc3ccc(Cl)c(C)c3)CC2)c1 [Example 166]	60%	905 nM
Cc1cc(NC(=O)[C@H]2CCC(=O)N2C2CCN(Cc3ccc(Cl)c(C)c3)CC2)cc(C(=O)N(C)C)c1 [Example 167]	98%	6 nM
Cc1cc(CN2CCC(N3C(=O)CC[C@@H]3C(=O)Nc3cc(Cl)cc(C(=O)N(C)C)c3)CC2)ccc1Cl [Example 168]	99%	4 nM
CNC(=O)c1cc(Cl)cc(NC(=O)[C@H]2CCC(=O)N2C2CCN(Cc3ccc(Cl)c(C)c3)CC2)c1 [Example 169]	99%	19 nM
Cc1cc(CN2CCC(N3C(=O)CC[C@@H]3C(=O)Nc3cc(C(=O)N(C)CCO)cc(C(C)(C)C)c3)CC2)ccc1Cl [Example 170]	100%	6 nM
Cc1cc(CN2CCC(N3C(=O)CC[C@@H]3C(=O)Nc3cc(C(=O)N(C)C)cc(C(C)(C)C)c3)CC2)ccc1Cl [Example 171]	99%	5 nM
CNC(=O)c1cc(NC(=O)[C@H]2CCC(=O)N2C2CCN(Cc3ccc(Cl)c(C)c3)CC2)cc(C(C)(C)C)c1 [Example 172]	95%	7 nM

Compound	inhibition at 1 µM	Ki
COc1cc(NC(=O)[C@H]2CCC(=O)N2C2CCN(Cc3ccc(Cl)c(C)c3)CC2)cc(C(=O)N(C)C)c1 [Example 173]	99%	13 nM
CNC(=O)c1cc(NC(=O)[C@H]2CCC(=O)N2C2CCN(Cc3ccc(Cl)c(C)c3)CC2)cc(OC)c1 [Example 174]	99%	13 nM
Cc1cc(NC(=O)[C@H]2CCC(=O)N2C2CCN(Cc3ccc(Cl)c(C)c3)CC2)cc(C(=O)N(C)CCO)c1 [Example 175]	99%	6 nM
Cc1cc(CN2CCC(N3C(=O)CC[C@@H]3C(=O)Nc3cc(F)cc(C(=O)N(C)C)c3)CC2)ccc1Cl [Example 176]	100%	11 nM
CNC(=O)c1cc(F)cc(NC(=O)[C@H]2CCC(=O)N2C2CCN(Cc3ccc(Cl)c(C)c3)CC2)c1 [Example 177]	97%	24 nM
COc1ccc(NC(=O)[C@H]2CCC(=O)N2C2CCN(Cc3ccc(Cl)c(C)c3)CC2)cc1C(=O)N(C)CCO [Example 178]	86%	108 nM
COc1ccc(NC(=O)[C@H]2CCC(=O)N2C2CCN(Cc3ccc(Cl)c(C)c3)CC2)cc1C(=O)N(C)C [Example 179]	95%	34 nM
CNC(=O)c1cc(NC(=O)[C@H]2CCC(=O)N2C2CCN(Cc3ccc(Cl)c(C)c3)CC2)ccc1OC [Example 180]	97%	16 nM
Cc1cc(CN2CCC(N3C(=O)CC[C@@H]3C(=O)Nc3cc(C(=O)N(C)C)cc(C(C)C)n3)CC2)ccc1Cl [Example 182]	99%	4 nM
COc1cc(C(=O)N(C)C)cc(NC(=O)[C@H]2CCC(=O)N2C2CCN(Cc3ccc(Cl)c(C)c3)CC2)n1 [Example 183]	75%	232 nM
CCc1cc(C(=O)N(C)C)cc(NC(=O)[C@H]2CCC(=O)N2C2CCN(Cc3ccc(Cl)c(C)c3)CC2)n1 [Example 184]	100%	8 nM
Cc1cc(CN2CCC(N3C(=O)CC[C@@H]3C(=O)Nc3cc(C(=O)N(C)C)cc(-c4nnnn4C)c3)CC2)ccc1Cl [Example 185]	98%	1 nM
Cc1cc(CN2CCC(N3C(=O)CC[C@@H]3C(=O)Nc3cc(C(=O)N(C)CCO)cc(-c4nnnn4C)c3)CC2)ccc1Cl [Example 186]	99%	1 nM
Cc1cc(CN2CCC(N3C(=O)CC[C@@H]3C(=O)Nc3nc(C(C)C)c(C(=O)N(C)C)s3)CC2)ccc1Cl [Example 189]	100%	4 nM
CNC(=O)c1sc(NC(=O)[C@H]2CCC(=O)N2C2CCN(Cc3ccc(Cl)c(C)c3)CC2)nc1C [Example 190]	100%	6 nM
Cc1cc(CN2CCC(N3C(=O)CCC3C(=O)Nc3cc(-c4c(C)noc4C)ccn3)CC2)ccc1Cl (stereo not drawn) [Example 192]	96%	
Cc1cc(CN2CCC(N3C(=O)CC[C@@H]3C(=O)Nc3cc(-c4c(C)noc4C)ccn3)CC2)ccc1Cl [Example 192]		6 nM
Cc1cc(-c2noc(C)n2)cc(NC(=O)[C@H]2CCC(=O)N2C2CCN(Cc3ccc(Cl)c(C)c3)CC2)n1 [Example 193]	99%	19 nM
Cc1cc(-c2nnnn2C)cc(NC(=O)[C@H]2CCC(=O)N2C2CCN(Cc3ccc(Cl)c(C)c3)CC2)n1 [Example 196]	89%	95 nM
CN1C[C@H](C(=O)Nc2cc(C3CC3)nn2C)N(C2CCN(Cc3ccc(OC(F)(F)F)c(F)c3)CC2)C1=O [Example 197]	44%	1250 nM
CN1C[C@H](C(=O)Nc2cc(C3CC3)nn2C)N(C2CCN(Cc3ccc(Cl)c(Cl)c3)CC2)C1=O [Example 198]	91%	67 nM
CN1C[C@H](C(=O)Nc2cc(C3CC3)nn2C)N(C2CCN(Cc3ccc(Cl)c(C(F)(F)F)c3)CC2)C1=O [Example 199]	66%	453 nM
CNC(=O)c1cccc(NC(=O)[C@H]2CCC(=O)N2C2CCN(Cc3ccc(Br)cc3)CC2)c1 [Example 200]	86%	114 nM
CNC(=O)c1cccc(NC(=O)[C@H]2CCC(=O)N2C2CCN(Cc3ccc(Cl)cc3)CC2)c1 [Example 201]	86%	119 nM
CNC(=O)c1cccc(NC(=O)[C@H]2CCC(=O)N2C2CCN(Cc3ccc(F)cc3)CC2)c1 [Example 202]	69%	390 nM
CNC(=O)c1cccc(NC(=O)[C@H]2CCC(=O)N2C2CCN(Cc3ccc(F)c(Cl)c3)CC2)c1 [Example 203]	75%	237 nM
